In patent US5498427A, “Solutions for the perfusion, preservation and reperfusion of organs” (Pasteur Merieux Serums et Vaccines, priority 1990, dated 1996):

Key:
[1] = hypothermic storage conditions in usual bags, periods up to 3 hours
Source text: In one embodiment the solution is stored, as a whole, in the container.

[2] = tested on: isolated hearts from Sprague-Dawley rats; experiment: Test of solutions containing NAC on isolated rat heart preparations (Langendorff, arrest, 5 h cold storage, 1 h ischemia, 1 h reperfusion); conditions: for Left ventricular pressure developed, Reperfusion: after ischemia and reperfusion; for Left ventricular pressure developed, Reperfusion / Coronary flow rate, Reperfusion / Coronary flow rate, Normal / Left ventricular pressure developed, Normal: N = 10; for Coronary flow rate, Normal / Left ventricular pressure developed, Normal: pre-ischaemic reference value
Procedure: Fifty isovolumic preparations of isolated hearts from Sprague-Dawley rats weighing 300 grams were used, the hearts being connected rapidly to a non-recirculating Langendorff perfusion column to establish a retrograde perfusion using an oxygenated (95% O2, 5% CO2) Krebs-Henseleit buffer, to establish a retrograde perfusion at a pressure of 100 cm of water. The left ventricular pressure, its derivative and the end-diastolicpressure were recorded continuously. The coronary flow rate was measured by noting the venous coronary flow rate. Left ventricular stimulation was maintained at a frequency of 320/min.
After a twenty-minute monitoring period, thirty hearts were arrested by perfusion using the preservation and perfusion solution at 4° C., and then rapidly placed in glass containers filled with the same solution and surrounded by ice. The hearts were maintained therein for five hours, with a mean myocardial temperature of 2° C. at the end of storage. The hearts were then reconnected to the perfusion circuit and subjected to an additional ischemia for one hour at between 15° and 18° C. The hearts were divided into three groups, including a control group which received a first perfusion of a solution which was identical but devoid of NAC on establishment of the post-storage ischemia and an additional perfusion of 25 ml of this solution immediately before unclamping the aorta, the perfusions being performed at 4° C. and 28° C., respectively. […] In the third group, a solution containing NAC at 28° C. was distributed in a single dose at the end of the ischemia. In this latter group, the NAC concentration was adjusted to 0.072 M so that all the hearts treated received the same amount of this substance, that is to say approximately 1.80 millimoles. The bottles containing the solutions as well as the connecting tubes were protected from light in order to avoid oxidation. In all three groups, the perfusions after storage were delivered at a pressure of 30 cm of water. After a period of ischemia of six hours, the hearts were reperfused for one hour at 37° C.
For all three groups, the stimulation was stopped and the left intraventricular balloon deflated during the period of ischemia so as to simulate clinical conditions. After reperfusion, stimulation was reestablished. Isovolumetric measurements of the coronary flow rate, the left ventricular pressure, its first derivative and the telediastolic pressure were performed three times during the monotoring period and then at 5, 30, 45 and 60 minutes during the reperfusion.

[3] = Group II, multidose solution enriched with NAC, versus Groups I and III
[4] = Second group, (0.04 M) NAC multidose
[5] = Third group, (0.07 M) NAC single dose at end of ischemia

## N[C@@H](CCC(=O)N[C@@H](CS)C(=O)NCC(=O)O)C(=O)O [glutathione]
[1]
  Rate of glutathione oxydation on storage: only minimal rate of glutathione oxydation

## CC(=O)N[C@@H](CS)C(=O)O [NAC, N-acetylcysteine]
[2]; Group II, multidose solution enriched with NAC
  Left ventricular diastolic pressure: postischemic contracture: significantly decreased
[2]; [3]
  Left ventricular pressure developed throughout the reperfusion period: significantly greater pressure was developed
  Postischemic derivative dP/dt: largest values
[2]; Group III, reperfusion supplemented with NAC only at end of ischemia
  Left ventricular diastolic pressure: compliance: significant loss of compliance
[2]; Group III, reperfusion supplemented with NAC only at end of ischemia, versus Group II
  Left ventricular pressure loss after ischemia and reperfusion: significantly greater pressure losses
[2]; [4]
  Left ventricular pressure developed, Reperfusion: 101.5 ± 3.4 mm Hg
  Coronary flow rate, Normal: 14.8 ± 0.6 mL/min
  Left ventricular pressure developed, Normal: 126.4 ± 2.8 mm Hg
[2]; Second group, (0.04 M) NAC multidose, after sixty minutes of reperfusion
  Coronary flow rate, Reperfusion: 12.1 ± 0.5 mL/min
[2]; [5]
  Left ventricular pressure developed, Reperfusion: 69.8 ± 3.6 mm Hg
  Coronary flow rate, Normal: 16.0 ± 0.5 mL/min
  Left ventricular pressure developed, Normal: 129.7 ± 2.0 mm Hg
[2]; Third group, (0.07 M) NAC single dose at end of ischemia, after sixty minutes of reperfusion
  Coronary flow rate, Reperfusion: 13.4 ± 0.4 mL/min
[2]; groups treated with NAC versus control, after sixty minutes of reperfusion
  Recovery of coronary flow rate: best recovery of coronary flow rate
